This is an account of results in the NIST ThermoML archive (doi:10.1021/je500672d).

The structures appear in SMILES notation. Numbers after ± are expanded uncertainties.

The conditions of this series: 298.15 K; 101.33 kPa; Liquid; Vibrating tube method.
What is called mass density is the mass of a sample divided by its volume. For `COP(=O)([O-])OC.Cn1cc[n+](C)c1` [1,3-dimethylimidazolium dimethylphosphate], the mass density is reported as 1257.8 ± 1.4 kg/m3. Next, `CO` [methanol]: 786.4 ± 0.4 kg/m3; `COC(C)=O` [methyl ethanoate]: 927.7 ± 0.5 kg/m3.
